Test results taken from ChEMBL document CHEMBL1201862, “PubChem BioAssay data set” (2004).
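Where inhibition never reached the appropriate level, the endpoint shown equals the highest concentration tested. Otherwise, values were interpolated linearly from a five-concentration, 48-hour dose response in 96-well plates. Here, GI50 denotes the concentration required for 50% inhibition of growth.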 Calls of active or inactive are those of the source. Rule as the data show it: active = GI50 up to about 1.1 µM and inactive = higher.

Assays:
Assay in all cases: inhibition of tumour cell growth, NCI panel, 48 h
[1] = system: NCI-H23
[2] = system: HCC 2998
[3] = system: MDA-MB-435
[4] = system: IGROV-1
[5] = system: CCRF-CEM
[6] = system: T47D
[7] = system: HOP-62
[8] = system: PC-3
[9] = system: RPMI-8226
[10] = system: UACC-257
[11] = system: A498
[12] = system: DU-145
[13] = system: LOX IMVI
[14] = system: SN12C
[15] = system: COLO 205
[16] = system: 786-0
[17] = system: SK-MEL-28
[18] = system: EKVX
[19] = system: CAKI-1
[20] = system: UO-31

Row | SMILES | GI50 [1] | GI50 [2] | GI50 [3] | GI50 [4] | GI50 [5] | GI50 [6] | GI50 [7] | GI50 [8] | GI50 [9] | GI50 [10] | GI50 [11] | GI50 [12] | GI50 [13] | GI50 [14] | GI50 [15] | GI50 [16] | GI50 [17] | GI50 [18] | GI50 [19] | GI50 [20]
1 | COc1ccc(Nc2c[nH]c(=O)[nH]c2=O)cc1 | > 100 µM (inactive) | > 100 µM (inactive) | > 100 µM (inactive) | > 100 µM (inactive) | > 100 µM (inactive) | > 100 µM (inactive) | > 100 µM (inactive) | > 100 µM (inactive) | > 100 µM (inactive) | > 100 µM (inactive) | > 100 µM (inactive) | > 100 µM (inactive) | > 100 µM (inactive) | > 100 µM (inactive) | > 100 µM (inactive) | > 100 µM (inactive) | > 100 µM (inactive) | > 100 µM (inactive) | > 100 µM (inactive) | > 100 µM (inactive)
2 | O=C1NC(Nc2ccccc2)=N/C1=C\c1c(Cl)cccc1Cl | 29.6 µM (inactive) | 21.4 µM (inactive) | 32.4 µM (inactive) | 17.8 µM (inactive) | 14.3 µM (inactive) | 30.8 µM (inactive) | 28.2 µM (inactive) | 17.8 µM (inactive) | 33.5 µM (inactive) | 23.8 µM (inactive) | 32.3 µM (inactive) | 24.7 µM (inactive) | 62.7 µM (inactive) | 15.7 µM (inactive) | 31.3 µM (inactive) | 15.1 µM (inactive) | 30.5 µM (inactive) | 20.6 µM (inactive) | 48.1 µM (inactive) | 4.42 µM (inactive)
3 | COC(=O)c1cccc(OC)c1C#Cc1c(OC)cccc1OC | > 100 µM (inactive) | > 100 µM (inactive) | 47.8 µM (inactive) | > 100 µM (inactive) | > 100 µM (inactive) | 76.2 µM (inactive) | > 100 µM (inactive) | > 100 µM (inactive) | > 100 µM (inactive) | > 100 µM (inactive) | > 100 µM (inactive) | > 100 µM (inactive) | > 100 µM (inactive) | > 100 µM (inactive) | > 100 µM (inactive) | > 100 µM (inactive) | > 100 µM (inactive) | > 100 µM (inactive) | > 100 µM (inactive) | > 100 µM (inactive)
4 | CC1C2CC(CC23OCC(CCl)O3)C1(C)C (stereo not given) | > 100 µM (inactive) | > 100 µM (inactive) | > 100 µM (inactive) | > 100 µM (inactive) | > 100 µM (inactive) | > 100 µM (inactive) | > 100 µM (inactive) | > 100 µM (inactive) | > 100 µM (inactive) | > 100 µM (inactive) | > 100 µM (inactive) | > 100 µM (inactive) | > 100 µM (inactive) | > 100 µM (inactive) | > 100 µM (inactive) | > 100 µM (inactive) | > 100 µM (inactive) | > 100 µM (inactive) | > 100 µM (inactive) | > 100 µM (inactive)
5 | O=C1CCCC2=C(N1)C(=O)C=CC2=O | 39.6 µM (inactive) | 60.8 µM (inactive) | 18.6 µM (inactive) | 43 µM (inactive) | 10.6 µM (inactive) | 22 µM (inactive) | 44.4 µM (inactive) | 16.1 µM (inactive) | 23.9 µM (inactive) | 45.2 µM (inactive) | 43.3 µM (inactive) | 17.5 µM (inactive) | > 53.5 µM (inactive) | 29.2 µM (inactive) | 23.8 µM (inactive) | 42.5 µM (inactive) | 45.4 µM (inactive) | 34.4 µM (inactive) | 32.5 µM (inactive) | 43.7 µM (inactive)
6 | CC1(CCCO)CCCCCC(C)(CCCO)C1=O (stereo not given) | > 100 µM (inactive) | > 100 µM (inactive) | > 100 µM (inactive) | > 100 µM (inactive) | > 100 µM (inactive) | > 100 µM (inactive) | > 100 µM (inactive) | > 100 µM (inactive) | > 100 µM (inactive) | > 100 µM (inactive) | > 100 µM (inactive) | > 100 µM (inactive) | > 100 µM (inactive) | > 100 µM (inactive) | > 100 µM (inactive) | > 100 µM (inactive) | > 100 µM (inactive) | > 100 µM (inactive) | > 100 µM (inactive) | > 100 µM (inactive)
7 | O=C(CCCN1CC=C(n2c(=O)[nH]c3ccccc32)CC1)c1cccs1 | > 100 µM (inactive) | > 100 µM (inactive) | > 100 µM (inactive) | > 100 µM (inactive) | > 100 µM (inactive) | > 100 µM (inactive) | > 100 µM (inactive) | 93.3 µM (inactive) | > 100 µM (inactive) | > 100 µM (inactive) | > 100 µM (inactive) | > 100 µM (inactive) | > 100 µM (inactive) | > 100 µM (inactive) | > 100 µM (inactive) | > 100 µM (inactive) | > 100 µM (inactive) | > 100 µM (inactive) | > 100 µM (inactive) | > 100 µM (inactive)
8 | Cc1cccc2c1[C@]13OC(C)[C@]4(C)CC5OC(=O)[C@@]1(C)[C@@H]5[C@]34C(=O)O2 (stereo not given in full) | > 100 µM (inactive) | > 100 µM (inactive) | > 100 µM (inactive) | > 100 µM (inactive) | > 100 µM (inactive) | > 100 µM (inactive) | > 100 µM (inactive) | > 100 µM (inactive) | > 100 µM (inactive) | > 100 µM (inactive) | > 100 µM (inactive) | > 100 µM (inactive) | > 100 µM (inactive) | > 100 µM (inactive) | > 100 µM (inactive) | > 100 µM (inactive) | > 100 µM (inactive) | > 100 µM (inactive) | > 100 µM (inactive) | > 100 µM (inactive)
9 | COc1ccc(-c2c3ccccc3c(-c3ccc(OCCBr)cc3)c3ccccc23)cc1 | > 100 µM (inactive) | > 100 µM (inactive) | > 100 µM (inactive) | > 100 µM (inactive) | > 100 µM (inactive) | > 100 µM (inactive) | > 100 µM (inactive) | > 100 µM (inactive) | > 100 µM (inactive) | > 100 µM (inactive) | > 100 µM (inactive) | > 100 µM (inactive) | > 100 µM (inactive) | > 100 µM (inactive) | > 100 µM (inactive) | > 100 µM (inactive) | > 100 µM (inactive) | > 100 µM (inactive) | > 100 µM (inactive) | 0.102 µM (active)
10 | CCOC(CN(C)C(=O)Nc1cccc2ccccc12)OCC | > 10 µM (inactive) | > 10 µM (inactive) | > 10 µM (inactive) | > 10 µM (inactive) | > 10 µM (inactive) | > 10 µM (inactive) | > 10 µM (inactive) | > 10 µM (inactive) | > 10 µM (inactive) | > 10 µM (inactive) | > 10 µM (inactive) | > 10 µM (inactive) | > 10 µM (inactive) | > 10 µM (inactive) | > 10 µM (inactive) | > 10 µM (inactive) | > 10 µM (inactive) | > 10 µM (inactive) | > 10 µM (inactive) | > 10 µM (inactive)
